From ChEMBL document CHEMBL3822358 (J Med Chem, 2016)

Test system: not listed separately
Experiment: cells
Conditions: Homo sapiens, KARPAS-299, 72 h
Description: Antiproliferative activity against human ALK-positive KARPAS299 cells assessed as reduction in cell viability measured after 72 hrs by CellTiter 96 aqueous one solution cell proliferation assay

| SMILES | IC50 [nM] |
| --- | --- |
| COc1cc(N2CCC(CN3CCC3)CC2)ccc1Nc1ncc(Cl)c(Nc2ccccc2P(C)(C)=O)n1 | 29.9 |

Test system: not listed separately
Experiment: AUC (0 to 24 hrs) in mouse at 10 mg/kg, po by LC-MS/MS analysis
Assay type: ADME, organism-based
Design: time < 24 hr, dose 10 mg/kg, route oral
Conditions: in vivo

| SMILES | AUC(0-t) at 24 h [ng·h/mL] |
| --- | --- |
| COc1cc(N2CCC(CN3CCC3)CC2)ccc1Nc1ncc(Cl)c(Nc2ccccc2P(C)(C)=O)n1 | 6490 |

Test system: not listed separately
Experiment: Oral bioavailability in CD rat at 10 mg/kg by LC-MS/MS analysis
Assay type: ADME, organism-based
Conditions: in vivo

| SMILES | bioavailability [%] |
| --- | --- |
| COc1cc(N2CCC(CN3CCC3)CC2)ccc1Nc1ncc(Cl)c(Nc2ccccc2P(C)(C)=O)n1 | 16 |

Test system: not listed separately
Experiment: Clearance in CD rat at 3 mg/kg, iv by LC-MS/MS analysis
Assay type: ADME, organism-based
Conditions: in vivo

| SMILES | clearance [mL/min/kg] |
| --- | --- |
| COc1cc(N2CCC(CN3CCC3)CC2)ccc1Nc1ncc(Cl)c(Nc2ccccc2P(C)(C)=O)n1 | 5.83 |

Test system: not listed separately
Experiment: Cmax in CD rat at 10 mg/kg, po by LC-MS/MS analysis
Assay type: ADME, organism-based
Design: dose 10 mg/kg, route oral
Conditions: in vivo

| SMILES | Cmax [ng/mL] |
| --- | --- |
| COc1cc(N2CCC(CN3CCC3)CC2)ccc1Nc1ncc(Cl)c(Nc2ccccc2P(C)(C)=O)n1 | 353 |

Test system: not listed separately
Experiment: Volume of distribution at steady state in CD rat at 3 mg/kg, iv by LC-MS/MS analysis
Assay type: ADME, organism-based
Conditions: CD, in vivo, read-out: Vdss

| SMILES | Vd [L/kg] |
| --- | --- |
| COc1cc(N2CCC(CN3CCC3)CC2)ccc1Nc1ncc(Cl)c(Nc2ccccc2P(C)(C)=O)n1 | 1.46 |

Target: Insulin receptor (Homo sapiens, UniProt P06213)
Sequence (P06213 28-758 limits assumed): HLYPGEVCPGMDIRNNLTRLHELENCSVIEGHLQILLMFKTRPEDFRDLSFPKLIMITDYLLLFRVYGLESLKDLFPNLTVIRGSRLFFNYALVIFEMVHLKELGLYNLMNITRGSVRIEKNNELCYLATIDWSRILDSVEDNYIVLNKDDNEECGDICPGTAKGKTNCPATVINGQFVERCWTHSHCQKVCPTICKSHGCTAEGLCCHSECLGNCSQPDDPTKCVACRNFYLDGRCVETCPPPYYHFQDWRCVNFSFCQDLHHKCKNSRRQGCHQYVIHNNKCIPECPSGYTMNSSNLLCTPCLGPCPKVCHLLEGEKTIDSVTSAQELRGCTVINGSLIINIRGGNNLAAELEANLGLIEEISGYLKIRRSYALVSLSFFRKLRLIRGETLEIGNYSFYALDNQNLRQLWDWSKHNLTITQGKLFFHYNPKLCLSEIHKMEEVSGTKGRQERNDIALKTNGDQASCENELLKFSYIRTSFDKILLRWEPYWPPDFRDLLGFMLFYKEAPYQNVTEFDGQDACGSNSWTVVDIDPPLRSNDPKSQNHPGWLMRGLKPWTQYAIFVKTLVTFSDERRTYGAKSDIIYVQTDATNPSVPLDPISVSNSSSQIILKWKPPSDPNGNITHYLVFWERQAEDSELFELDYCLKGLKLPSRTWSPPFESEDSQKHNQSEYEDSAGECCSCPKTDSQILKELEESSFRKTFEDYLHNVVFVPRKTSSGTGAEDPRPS
Sequence (P06213 763-1382 limits assumed): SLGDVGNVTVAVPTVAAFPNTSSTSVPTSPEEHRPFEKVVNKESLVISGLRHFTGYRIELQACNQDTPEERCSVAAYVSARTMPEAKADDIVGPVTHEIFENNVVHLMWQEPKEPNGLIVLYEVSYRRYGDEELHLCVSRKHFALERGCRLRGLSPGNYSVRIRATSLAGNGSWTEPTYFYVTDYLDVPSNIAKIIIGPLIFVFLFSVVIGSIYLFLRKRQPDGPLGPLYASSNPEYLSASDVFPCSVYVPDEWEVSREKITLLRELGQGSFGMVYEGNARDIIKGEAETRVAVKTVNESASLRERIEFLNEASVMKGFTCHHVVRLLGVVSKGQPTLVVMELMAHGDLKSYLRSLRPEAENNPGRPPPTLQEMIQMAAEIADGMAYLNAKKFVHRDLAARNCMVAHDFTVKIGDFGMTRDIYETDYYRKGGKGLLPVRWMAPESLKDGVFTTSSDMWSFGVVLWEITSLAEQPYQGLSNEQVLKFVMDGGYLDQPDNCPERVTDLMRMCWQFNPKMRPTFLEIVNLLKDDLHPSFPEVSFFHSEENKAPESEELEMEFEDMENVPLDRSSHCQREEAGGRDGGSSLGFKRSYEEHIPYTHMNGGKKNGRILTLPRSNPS
Experiment: not given
Conditions: not given

| SMILES | IC50 [nM] |
| --- | --- |
| COc1cc(N2CCC(CN3CCC3)CC2)ccc1Nc1ncc(Cl)c(Nc2ccccc2P(C)(C)=O)n1 | 130 |

Test system: not listed separately
Experiment: Half life in mouse at 10 mg/kg, po by LC-MS/MS analysis
Assay type: ADME, organism-based
Conditions: in vivo

| SMILES | half-life [h] |
| --- | --- |
| COc1cc(N2CCC(CN3CCC3)CC2)ccc1Nc1ncc(Cl)c(Nc2ccccc2P(C)(C)=O)n1 | 3.1 |

Target: T1, ALK tyrosine kinase receptor (Homo sapiens, UniProt Q9UM73)
Experiment: Inhibition of ALK phosphorylation in mouse xenografted with human KARPAS299 cells assessed as p-ALK level at 25 mg/kg, po administered as single dose measured after 10 hrs relative to 2 hrs vehicle-treated tumor
Assay type: organism-based
Design: scale not given: the % may be the effect or the level left
Conditions: KARPAS-299
Target sequence in this assay (Q9UM73 19-1620 limits assumed): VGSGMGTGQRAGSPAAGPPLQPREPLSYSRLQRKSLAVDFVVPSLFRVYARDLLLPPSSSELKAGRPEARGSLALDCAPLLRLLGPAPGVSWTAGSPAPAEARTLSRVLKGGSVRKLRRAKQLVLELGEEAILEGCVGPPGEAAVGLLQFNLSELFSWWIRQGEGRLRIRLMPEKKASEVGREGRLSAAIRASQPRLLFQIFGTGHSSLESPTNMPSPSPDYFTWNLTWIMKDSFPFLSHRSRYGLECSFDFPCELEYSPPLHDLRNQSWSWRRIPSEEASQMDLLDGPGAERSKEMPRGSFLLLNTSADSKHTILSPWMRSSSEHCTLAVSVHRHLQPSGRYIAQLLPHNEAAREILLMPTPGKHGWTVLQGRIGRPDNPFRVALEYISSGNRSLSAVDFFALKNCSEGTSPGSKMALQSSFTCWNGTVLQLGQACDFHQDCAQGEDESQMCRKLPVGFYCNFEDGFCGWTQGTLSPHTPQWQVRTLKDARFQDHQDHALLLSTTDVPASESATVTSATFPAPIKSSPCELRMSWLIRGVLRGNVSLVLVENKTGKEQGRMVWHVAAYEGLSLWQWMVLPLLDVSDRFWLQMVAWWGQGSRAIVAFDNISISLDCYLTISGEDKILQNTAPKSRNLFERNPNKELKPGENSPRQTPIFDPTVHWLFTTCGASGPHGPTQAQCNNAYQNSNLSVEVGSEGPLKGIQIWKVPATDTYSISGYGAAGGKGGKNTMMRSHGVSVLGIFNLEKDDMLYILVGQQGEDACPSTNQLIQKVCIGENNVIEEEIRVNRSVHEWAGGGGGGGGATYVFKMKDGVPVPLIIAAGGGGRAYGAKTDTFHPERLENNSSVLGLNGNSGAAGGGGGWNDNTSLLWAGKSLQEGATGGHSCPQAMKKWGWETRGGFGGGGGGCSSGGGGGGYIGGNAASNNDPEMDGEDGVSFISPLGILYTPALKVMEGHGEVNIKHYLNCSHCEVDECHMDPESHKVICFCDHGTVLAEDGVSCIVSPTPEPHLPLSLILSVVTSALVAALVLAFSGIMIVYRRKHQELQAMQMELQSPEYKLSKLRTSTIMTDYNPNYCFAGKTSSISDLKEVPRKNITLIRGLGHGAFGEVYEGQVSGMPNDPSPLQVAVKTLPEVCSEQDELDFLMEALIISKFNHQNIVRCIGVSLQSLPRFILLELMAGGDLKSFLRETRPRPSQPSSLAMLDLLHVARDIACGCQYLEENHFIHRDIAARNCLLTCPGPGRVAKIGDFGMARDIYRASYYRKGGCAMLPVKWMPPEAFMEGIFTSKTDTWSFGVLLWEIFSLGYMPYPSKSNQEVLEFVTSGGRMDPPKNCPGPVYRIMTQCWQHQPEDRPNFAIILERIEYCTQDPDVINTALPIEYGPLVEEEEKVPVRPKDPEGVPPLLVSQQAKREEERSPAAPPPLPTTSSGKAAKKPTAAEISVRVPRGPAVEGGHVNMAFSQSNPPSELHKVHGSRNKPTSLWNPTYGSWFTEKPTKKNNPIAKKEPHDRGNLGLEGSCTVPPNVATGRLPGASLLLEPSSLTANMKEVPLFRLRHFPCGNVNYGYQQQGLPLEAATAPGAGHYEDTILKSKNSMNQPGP

| SMILES | Activity [%] |
| --- | --- |
| COc1cc(N2CCC(CN3CCC3)CC2)ccc1Nc1ncc(Cl)c(Nc2ccccc2P(C)(C)=O)n1 | 13 |

Test system: not listed separately
Experiment: Cmax in mouse at 10 mg/kg, po by LC-MS/MS analysis
Assay type: ADME, organism-based
Design: dose 10 mg/kg, route oral
Conditions: in vivo

| SMILES | Cmax [ng/mL] |
| --- | --- |
| COc1cc(N2CCC(CN3CCC3)CC2)ccc1Nc1ncc(Cl)c(Nc2ccccc2P(C)(C)=O)n1 | 498 |

Test system: not listed separately
Experiment: AUC (0 to infinity) in CD rat at 3 mg/kg, iv by LC-MS/MS analysis
Assay type: ADME, organism-based
Design: dose 3 mg/kg, time infinity, route intravenous
Conditions: CD, in vivo

| SMILES | AUC(0-inf) [ng·h/mL] |
| --- | --- |
| COc1cc(N2CCC(CN3CCC3)CC2)ccc1Nc1ncc(Cl)c(Nc2ccccc2P(C)(C)=O)n1 | 8620 |

Target: T1, ALK tyrosine kinase receptor
Experiment: not given
Conditions: not given
Target sequence in this assay (Q9UM73 whole entry): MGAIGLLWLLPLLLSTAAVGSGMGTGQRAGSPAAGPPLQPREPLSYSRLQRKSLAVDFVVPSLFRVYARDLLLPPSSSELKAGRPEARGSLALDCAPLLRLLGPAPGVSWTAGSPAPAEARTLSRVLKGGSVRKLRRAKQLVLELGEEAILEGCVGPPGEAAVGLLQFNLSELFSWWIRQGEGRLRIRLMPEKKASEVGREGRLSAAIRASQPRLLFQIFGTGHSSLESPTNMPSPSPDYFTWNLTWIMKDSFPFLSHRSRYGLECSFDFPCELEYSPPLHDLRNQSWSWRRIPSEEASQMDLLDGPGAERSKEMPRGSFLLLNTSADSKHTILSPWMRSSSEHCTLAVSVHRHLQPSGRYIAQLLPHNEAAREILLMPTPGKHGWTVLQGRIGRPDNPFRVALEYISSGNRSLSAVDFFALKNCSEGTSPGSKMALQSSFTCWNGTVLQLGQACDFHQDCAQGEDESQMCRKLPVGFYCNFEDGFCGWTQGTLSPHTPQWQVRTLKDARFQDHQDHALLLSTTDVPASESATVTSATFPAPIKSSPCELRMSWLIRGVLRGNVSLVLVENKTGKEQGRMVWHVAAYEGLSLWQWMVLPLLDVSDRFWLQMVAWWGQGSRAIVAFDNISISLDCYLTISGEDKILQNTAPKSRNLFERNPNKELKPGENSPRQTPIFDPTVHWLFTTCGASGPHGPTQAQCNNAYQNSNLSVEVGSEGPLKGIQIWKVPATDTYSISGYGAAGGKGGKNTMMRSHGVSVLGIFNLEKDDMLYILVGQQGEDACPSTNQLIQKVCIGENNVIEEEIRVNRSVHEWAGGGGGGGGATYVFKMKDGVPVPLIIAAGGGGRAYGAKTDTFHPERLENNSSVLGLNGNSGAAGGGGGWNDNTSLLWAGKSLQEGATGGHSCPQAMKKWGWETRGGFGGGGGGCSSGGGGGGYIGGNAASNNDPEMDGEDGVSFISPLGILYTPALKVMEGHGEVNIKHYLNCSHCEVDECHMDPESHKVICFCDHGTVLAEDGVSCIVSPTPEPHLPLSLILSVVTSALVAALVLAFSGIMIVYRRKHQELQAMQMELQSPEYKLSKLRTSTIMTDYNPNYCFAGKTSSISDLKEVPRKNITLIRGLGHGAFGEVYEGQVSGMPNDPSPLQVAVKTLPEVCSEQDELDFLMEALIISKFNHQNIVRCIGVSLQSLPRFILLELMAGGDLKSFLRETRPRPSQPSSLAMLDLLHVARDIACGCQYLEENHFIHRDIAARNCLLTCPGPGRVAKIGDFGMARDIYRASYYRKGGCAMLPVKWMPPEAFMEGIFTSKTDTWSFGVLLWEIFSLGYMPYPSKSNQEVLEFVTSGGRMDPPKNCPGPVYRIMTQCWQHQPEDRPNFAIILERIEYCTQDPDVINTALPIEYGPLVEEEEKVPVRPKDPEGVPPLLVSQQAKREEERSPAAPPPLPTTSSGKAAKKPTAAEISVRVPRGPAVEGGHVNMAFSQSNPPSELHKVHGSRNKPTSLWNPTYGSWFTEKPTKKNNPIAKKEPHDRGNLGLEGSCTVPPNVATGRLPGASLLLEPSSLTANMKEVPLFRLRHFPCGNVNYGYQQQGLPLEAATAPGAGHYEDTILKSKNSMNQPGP

| SMILES | IC50 [nM] |
| --- | --- |
| COc1cc(N2CCC(CN3CCC3)CC2)ccc1Nc1ncc(Cl)c(Nc2ccccc2P(C)(C)=O)n1 | 0.88 |

Test system: not listed separately
Experiment: Half life in CD rat at 10 mg/kg, po by LC-MS/MS analysis
Assay type: ADME, organism-based
Conditions: in vivo

| SMILES | half-life [h] |
| --- | --- |
| COc1cc(N2CCC(CN3CCC3)CC2)ccc1Nc1ncc(Cl)c(Nc2ccccc2P(C)(C)=O)n1 | 3.4 |

Target: Insulin-like growth factor 1 receptor (Homo sapiens, UniProt P08069)
Experiment: not given
Conditions: not given

| SMILES | IC50 [nM] |
| --- | --- |
| COc1cc(N2CCC(CN3CCC3)CC2)ccc1Nc1ncc(Cl)c(Nc2ccccc2P(C)(C)=O)n1 | 31.6 |

Test system: not listed separately
Experiment: Half life in CD rat at 3 mg/kg, iv by LC-MS/MS analysis
Assay type: ADME, organism-based
Conditions: CD, in vivo

| SMILES | half-life [h] |
| --- | --- |
| COc1cc(N2CCC(CN3CCC3)CC2)ccc1Nc1ncc(Cl)c(Nc2ccccc2P(C)(C)=O)n1 | 3.6 |

Test system: not listed separately
Experiment: cells
Conditions: Homo sapiens, U-937, 72 h
Description: Antiproliferative activity against human ALK-negative U937 cells assessed as reduction in cell viability measured after 72 hrs by CellTiter 96 aqueous one solution cell proliferation assay

| SMILES | IC50 [nM] |
| --- | --- |
| COc1cc(N2CCC(CN3CCC3)CC2)ccc1Nc1ncc(Cl)c(Nc2ccccc2P(C)(C)=O)n1 | 2720 |

Test system: not listed separately
Experiment: Tmax in CD rat at 10 mg/kg, po by LC-MS/MS analysis
Assay type: ADME, organism-based
Conditions: in vivo

| SMILES | Tmax [h] |
| --- | --- |
| COc1cc(N2CCC(CN3CCC3)CC2)ccc1Nc1ncc(Cl)c(Nc2ccccc2P(C)(C)=O)n1 | 6 |

Target: T1, ALK tyrosine kinase receptor
Experiment: Inhibition of ALK phosphorylation in mouse xenografted with human KARPAS299 cells assessed as p-ALK level at 25 mg/kg, po administered as single dose measured after 16 hrs relative to 2 hrs vehicle-treated tumor
Assay type: organism-based
Design: scale not given: the % may be the effect or the level left
Conditions: KARPAS-299
Target sequence in this assay (Q9UM73 19-1620 limits assumed): as the sequence (Q9UM73 19-1620 limits assumed) above

| SMILES | Activity [%] |
| --- | --- |
| COc1cc(N2CCC(CN3CCC3)CC2)ccc1Nc1ncc(Cl)c(Nc2ccccc2P(C)(C)=O)n1 | 60 |

Test system: not listed separately
Experiment: AUC (0 to infinity) in CD rat at 10 mg/kg, po by LC-MS/MS analysis
Assay type: ADME, organism-based
Design: dose 10 mg/kg, route oral, time infinity
Conditions: in vivo

| SMILES | AUC(0-inf) [ng·h/mL] |
| --- | --- |
| COc1cc(N2CCC(CN3CCC3)CC2)ccc1Nc1ncc(Cl)c(Nc2ccccc2P(C)(C)=O)n1 | 4570 |

Target: T1, ALK tyrosine kinase receptor
Experiment: Inhibition of ALK phosphorylation in mouse xenografted with human KARPAS299 cells assessed as p-ALK level at 25 mg/kg, po administered as single dose measured after 24 hrs relative to 2 hrs vehicle-treated tumor
Assay type: organism-based
Design: scale not given: the % may be the effect or the level left
Conditions: KARPAS-299
Target sequence in this assay (Q9UM73 19-1620 limits assumed): as above

| SMILES | Activity [%] |
| --- | --- |
| COc1cc(N2CCC(CN3CCC3)CC2)ccc1Nc1ncc(Cl)c(Nc2ccccc2P(C)(C)=O)n1 | 104 |
